This passage reports TGI and GI50 results from PubChem BioAssay (NCI).

Structures are written as SMILES. Values joined by “and” are separate entries in the source; they are usually repeats but may differ in a detail not shown here. Equal entries are not always repeated.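 Method: 48-hour compound exposure of cells in 96-well plates, five concentrations, linear interpolation of endpoints. Abbreviation: GI50, concentration required for 50% inhibition of growth. TGI: concentration producing complete growth inhibition.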 Starred links: 1 amine or outer side, 2 acyl side, 3 side chain; linkers in the order of their positions; H or OH if unused. Positions of bridges follow the written chain, without caps; N, C: chain ends. Non-standard residues stand in square brackets, D forms with d. Residues, ends and D or L forms follow the SMILES beside them. Chains are numbered I, II in the order given. Actinocin(9to1) = Cc1c2oc3c(C)ccc(C(=O)[*:1])c3nc-2c(C(=O)[*:2])c(N)c1=O; NMeY = CN[CH](Cc1ccc(O)cc1)C(=O)O; Sar = CNCC(=O)O Bounds are passed on as bounds.

What all share (test): inhibition of tumour cell growth, NCI panel, 48 h
For assay [1], the system named is SF-295 CNS.
The subject of assay [2] is MOLT-4 leukemia.
For assay [3], the system named is MALME-3M melanoma.
Assay [4] relates to A498 renal.
Assay [5] deals with SNB-75 CNS.
Assay [6] concerns OVCAR-4 ovarian.
Assay [7] deals with CAKI-1 renal.
In assay [8] the test system is T-47D breast.
Assay [9] has as its system K-562 leukemia.
Assay [10] has as its system HOP-62 NSCLC.
In assay [11] the test system is SK-MEL-28 melanoma.
Assay [12] has as its system SF-268 CNS.
Assay [13] concerns SF-539 CNS.

Take `O=C1Sc2cc3ccccc3cc2C(=O)Sc2ccc(Br)cc21`: the TGI in assay [1] was 29.1 µM; in [2], above 31.6 µM; in [3] it was 26.5 µM; in assay [4], 33.4 µM; in assay [5], 13.3 µM; in assay [6], 35.2 µM. Further, the TGI in assay [7] turned out to be 14.8 µM; in assay [8] it was 23.8 µM; in [9] it was 19.2 µM; in assay [10] it was 18.3 µM; in assay [11] it was 9.79 µM; in [12] it was 23.2 µM. Also, the TGI in assay [13] was determined as 27 µM.
Consider `COc1cc(C2c3cc4c(cc3OC(N3CCCCC3)C2C)OCO4)cc(OC)c1O` (stereo not drawn), for which the TGI in assay [1] was 13.4 µM; in assay [2], above 91.3 µM; in assay [3], 16.8 µM; in assay [4], 27.1 µM; in assay [5], 13.7 µM; in [6], above 61.2 µM. The TGI in assay [7] is 25.2 µM; in assay [8], above 60.2 µM; in assay [9], above 100 µM; in assay [10], 25.9 µM; in [11], 27.3 µM; in [12], above 53.8 µM. In addition, the TGI in [13] stood at 25.5 µM.
As to `N#Cc1n[nH]n(-c2ccc(Br)cc2)c1=O`, the TGI in assay [1], in assay [3], in assay [4], in assay [5], in [6] and in assay [7] was above 100 µM in each case. Moreover, the TGI in assay [8], in [9], in assay [10], in [11], in assay [12] and in assay [13] was above 100 µM each time.
Take `O=C(O)C(O)C(O)C(O)C(O)c1nc2ccccc2s1` (stereo not drawn): the TGI in assay [1] was 31.9 µM; in [3], 36.7 µM; in assay [4] it was 63.7 µM; in assay [5], 34.7 µM; in [6], 50.2 µM; in assay [7] it was 33.5 µM. For the same compound, the TGI in assay [8] is 52.7 µM; in assay [10], 33.5 µM; in [11], 38 µM; in [12] it was 29 µM; in assay [13], 34.1 µM.
For `Cc1ccc(C2SCC(=O)N2c2ccc(-n3c(-c4ccccc4)nc4ccccc4c3=O)cc2)cc1` (stereo not drawn), the TGI was 44.7 µM in assay [1]; above 100 µM in [2]; 73 µM in assay [3]; 90.3 µM in [4]; 90.5 µM in assay [5]; above 100 µM in assay [6]. Moreover, the TGI is above 100 µM in [7]; 67.3 µM in [8]; above 100 µM in assay [9]; 53.9 µM in assay [10]; above 100 µM in [11]; above 100 µM in assay [12]. The same compound yielded a TGI in [13] of 39.6 µM.
Regarding `COC(=O)C1=C(OC(=O)/C(=C/c2ccc(Cl)cc2)c2ccc(Cl)cc2)C(C(=O)OC)[C@@]2(O)[C@@H](C(=O)OC)[C@H](C)C[C@@H]1[C@@H]2C(=O)OC` (stereo partly drawn), the TGI in assay [1] is above 100 µM; in [2] it was 98.8 µM; in assay [3] it was above 100 µM; in assay [4] it was above 100 µM; in [5], above 100 µM; in assay [6] it was above 100 µM. Besides, the TGI in assay [7], in assay [8], in assay [9], in assay [10], in assay [11] and in assay [12] was above 100 µM throughout. This compound also yielded a TGI in [13] above 100 µM.
With `N#CC1C(=S)NC(c2ccccc2)=CC12CCCCC2` (stereo not drawn), the TGI in [2] is 53.2 µM; in assay [3], 43.2 µM; in assay [4], 50.3 µM; in [5] it was above 100 µM; in [6] it was 85.5 µM; in [7], above 100 µM. Also, the TGI in assay [8] is 31.1 µM; in [9], above 100 µM; in [11], 95.5 µM; in assay [12], above 100 µM; in assay [13], above 100 µM.
For the compound `O=C1c2ccccc2C(=O)c2c(NCC(O)CO)ccc(NCC(O)CO)c21` (stereo not drawn), the TGI in assay [2], in assay [3], in assay [4], in assay [5], in assay [6] and in assay [7] was above 100 µM throughout. Further, the TGI in assay [8], in assay [9], in [10], in assay [11], in [12] and in [13] was above 100 µM each time.
With `Cc1n(Cc2ccccc2)c2c([n+]1C)C(=O)c1ccccc1C2=O`, the TGI in assay [1] worked out at 0.554 µM; in assay [3], 0.0577 µM; in assay [4], 0.653 µM; in assay [5], 0.219 µM; in assay [6], 0.812 µM; in assay [7] it was 11.3 µM. The TGI in assay [8] amounted to 1.33 µM; in [9], 1.66 µM; in assay [10], 0.775 µM; in [11], 0.541 µM; in assay [12], 0.143 µM; in assay [13], 0.179 µM.
For the compound `Cc1c(C)c2c(c(N)c1C#N)C(=O)N(NC(=O)c1ccccc1)C2=O`, the TGI in [1], in [2], in [3], in assay [4], in assay [5] and in assay [6] was above 100 µM throughout. The TGI in assay [7], in assay [8], in assay [9], in assay [11], in [12] and in assay [13] was above 100 µM throughout.
As to `CN=C(n1ccnc1)n1ccnc1`, the TGI in [2], in assay [3], in assay [4], in [5], in assay [6] and in assay [7] was above 100 µM each time. The TGI in [8], in assay [9], in assay [11], in assay [12] and in assay [13] was above 100 µM each time.
Take `C=CCc1cccc2cc(C(=O)NCc3ccccc3)c(=N)oc12`: the TGI in assay [2] was above 100 µM; in assay [3], 40.4 µM; in assay [4], 86.8 µM; in assay [5], above 100 µM; in [6], above 100 µM; in assay [7], above 100 µM. Further, the TGI in [8], in assay [9], in [10], in assay [11], in assay [12] and in assay [13] was above 100 µM each time.
With `CC(=O)Nc1sc(Br)cc1S(=O)(=O)c1ccc(Cl)cc1`, the TGI in [1] is above 100 µM; in assay [2], above 100 µM; in assay [3], above 100 µM; in assay [4], above 100 µM; in assay [5] it was 88.6 µM; in [6], 64.5 µM. For the same compound, the TGI is above 100 µM in [7]; 68.5 µM in assay [8]; 78.3 µM in assay [9]; above 100 µM in [11]; above 100 µM in [12]; 40.6 µM in assay [13].
For `Cc1c2oc3c(C)ccc(C(=O)NC4C(=O)NC(C(C)C)C(=O)N5CCCC5C(=O)N(C)CC(=O)N(C)C(Cc5ccc(O)cc5)C(=O)OC4C)c3nc-2c(C(=O)NC2C(=O)NC(C(C)C)C(=O)N3CCCC3C(=O)N(C)CC(=O)N(C)C(Cc3ccc(O)cc3)C(=O)OC2C)c(N)c1=O` (stereo not drawn) (I: TVP[Sar][NMeY] / II: TVP[Sar][NMeY]; ester I:1-I:C, II:1-II:C; linker I:N-II:N via Actinocin(9to1); configuration not given here), the GI50 in [1] was 0.0438 µM and 0.0157 µM; in assay [2] it was 0.00426 µM and 0.00176 µM; in assay [5], 0.0174 µM and 0.00316 µM; in [8], 0.0103 µM and 0.00457 µM; in assay [9], 0.00338 µM and 0.000595 µM; in assay [11], 0.0248 µM and 0.00701 µM. In addition, the TGI in assay [1] was above 1 µM; in assay [3] it was 0.273 µM and 0.156 µM; in assay [4], 0.664 µM and 0.11 µM; in assay [5], 0.278 µM and 0.228 µM; in [6], above 0.301 µM; in assay [7], above 1 µM. For the same compound, the TGI in assay [8] was above 0.334 µM; in assay [9] it was above 1 µM; in [11], 0.205 µM and 0.0748 µM; in assay [12], above 1 µM; in assay [13], 0.224 µM and 0.152 µM.
Consider `COc1cccc(CCNC(=O)Cc2ccccc2CCO)c1`, for which the TGI in [1], in assay [2], in assay [4], in [5], in assay [6] and in assay [7] was above 100 µM throughout. Moreover, the TGI in [8], in [9], in assay [10], in [11], in [12] and in assay [13] was above 100 µM each time.
For the compound `CCOC(=O)NC(Nc1ccc(C)cc1)(C(F)(F)F)C(F)(F)F`, the TGI in assay [1], in assay [2], in assay [3], in assay [4], in [5] and in assay [6] was above 100 µM throughout. For the same compound, the TGI in assay [8], in [9], in assay [10], in assay [11], in assay [12] and in [13] was above 100 µM each time.
